Data on four compounds can be found in ChEMBL document CHEMBL5465560, “Selectivity Literature for EUbOPEN Chemogenomic Library” (2024).

Molecules are shown by their SMILES. Where a chain is given by its changes, count along the chain named.

Experiment [1] has as its target Dual specificity protein kinase CLK4 (Homo sapiens, UniProt Q9HAZ1). In words: Selectivity interaction (Ambit KINOMEscan and KiNATiv profiling in Jurkat cells) EUB0000090b CLK4. Format: cell-based. To be noted: at 1 µM.
For experiment [2], the system named is T1, Receptor-type tyrosine-protein kinase FLT3 (Homo sapiens), P36888 [D835H].
T1 sequence (whole entry): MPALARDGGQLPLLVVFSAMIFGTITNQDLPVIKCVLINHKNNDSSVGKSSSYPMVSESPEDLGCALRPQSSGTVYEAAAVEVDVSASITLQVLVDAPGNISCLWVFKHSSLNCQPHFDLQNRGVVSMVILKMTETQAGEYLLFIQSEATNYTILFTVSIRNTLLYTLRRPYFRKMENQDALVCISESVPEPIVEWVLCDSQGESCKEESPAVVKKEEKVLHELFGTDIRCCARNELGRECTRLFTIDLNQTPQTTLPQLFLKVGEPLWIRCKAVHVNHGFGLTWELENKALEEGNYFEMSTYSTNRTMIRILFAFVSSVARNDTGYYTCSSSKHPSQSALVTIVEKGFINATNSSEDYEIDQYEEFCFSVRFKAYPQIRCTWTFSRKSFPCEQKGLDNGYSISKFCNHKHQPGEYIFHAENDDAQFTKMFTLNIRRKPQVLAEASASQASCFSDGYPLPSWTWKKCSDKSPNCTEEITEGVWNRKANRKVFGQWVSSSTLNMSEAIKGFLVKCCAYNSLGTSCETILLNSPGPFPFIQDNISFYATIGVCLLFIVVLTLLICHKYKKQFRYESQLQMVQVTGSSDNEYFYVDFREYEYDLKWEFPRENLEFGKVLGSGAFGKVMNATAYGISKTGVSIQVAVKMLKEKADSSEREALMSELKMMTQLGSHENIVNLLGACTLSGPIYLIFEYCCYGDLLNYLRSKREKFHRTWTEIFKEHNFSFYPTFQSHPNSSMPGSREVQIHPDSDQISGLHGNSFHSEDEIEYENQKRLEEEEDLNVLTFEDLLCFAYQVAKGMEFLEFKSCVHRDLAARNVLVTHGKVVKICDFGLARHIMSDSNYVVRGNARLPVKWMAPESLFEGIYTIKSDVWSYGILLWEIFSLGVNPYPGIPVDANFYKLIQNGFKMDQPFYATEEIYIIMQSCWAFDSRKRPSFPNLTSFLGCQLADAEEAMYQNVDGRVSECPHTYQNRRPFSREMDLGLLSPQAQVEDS
The experiment can be described thus: (§1) Selectivity interaction (Ambit KINOMEscan and KiNATiv profiling in Jurkat cells) EUB0000090b FLT3. To be noted: at 1 µM. Format: cell-based.

For experiment [3], the system named is T2, Receptor-type tyrosine-protein kinase FLT3 (Homo sapiens), P36888 [K663Q].
T2 sequence (whole entry): T1 sequence (whole entry) with K663Q, H835D
The experiment is described as §1. Format: cell-based. The note with it: at 1 µM.

In experiment [4] the test system is Receptor-type tyrosine-protein kinase FLT3 (Homo sapiens), P36888 [UNDEFINED MUTATION]. The experiment is described as §1. Format: cell-based. To be noted: at 1 µM.
Experiment [5] addresses T3, Tyrosine-protein kinase Tec (Homo sapiens) (UniProt P42680).
T3 sequence (whole entry): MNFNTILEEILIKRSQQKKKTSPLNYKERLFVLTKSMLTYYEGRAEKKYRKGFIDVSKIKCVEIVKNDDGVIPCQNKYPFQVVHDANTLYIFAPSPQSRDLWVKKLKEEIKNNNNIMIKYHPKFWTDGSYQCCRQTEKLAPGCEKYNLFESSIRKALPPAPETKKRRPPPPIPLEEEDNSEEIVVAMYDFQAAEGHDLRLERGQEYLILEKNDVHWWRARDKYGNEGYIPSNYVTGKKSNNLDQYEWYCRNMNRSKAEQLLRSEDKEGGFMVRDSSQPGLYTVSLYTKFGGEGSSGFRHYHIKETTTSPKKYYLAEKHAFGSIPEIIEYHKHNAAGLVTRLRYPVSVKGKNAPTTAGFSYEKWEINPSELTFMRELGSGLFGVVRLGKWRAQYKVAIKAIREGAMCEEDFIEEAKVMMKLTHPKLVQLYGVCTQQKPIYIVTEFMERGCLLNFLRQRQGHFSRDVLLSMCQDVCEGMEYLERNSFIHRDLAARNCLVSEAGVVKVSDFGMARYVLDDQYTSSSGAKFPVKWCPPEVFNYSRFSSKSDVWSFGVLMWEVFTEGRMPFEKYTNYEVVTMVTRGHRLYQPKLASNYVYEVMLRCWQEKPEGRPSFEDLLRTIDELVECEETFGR
In words: Selectivity interaction (Ambit KINOMEscan and KiNATiv profiling in Jurkat cells) EUB0000090b TEC. It counts as cell-based. To be noted: at 1 µM.

In experiment [6] the target is MAP kinase-activated protein kinase 2 (Homo sapiens, UniProt P49137). The experiment can be described thus: Selectivity interaction (KinomeScan (DiscoverX)) EUB0001079a MAPKAPK2. To be noted: at 1 µM.
Sequence of MAP kinase-activated protein kinase 2 (P49137 whole entry, looked up): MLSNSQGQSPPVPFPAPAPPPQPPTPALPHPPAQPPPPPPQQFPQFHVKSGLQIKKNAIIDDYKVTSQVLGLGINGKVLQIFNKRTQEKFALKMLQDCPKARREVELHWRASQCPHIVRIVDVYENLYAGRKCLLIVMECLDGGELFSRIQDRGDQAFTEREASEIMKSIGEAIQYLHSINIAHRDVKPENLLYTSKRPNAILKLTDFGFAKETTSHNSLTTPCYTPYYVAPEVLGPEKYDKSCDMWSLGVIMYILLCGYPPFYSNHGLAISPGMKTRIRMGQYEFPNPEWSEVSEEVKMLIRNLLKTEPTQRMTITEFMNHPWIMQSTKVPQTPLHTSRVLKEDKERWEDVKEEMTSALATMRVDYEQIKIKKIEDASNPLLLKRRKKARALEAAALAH
Experiment [7] deals with Wee1-like protein kinase (Homo sapiens) (UniProt P30291). In words: Selectivity interaction (KinomeScan (DiscoverX)) EUB0000695a WEE1. To be noted: at 100 nM.
Sequence of Wee1-like protein kinase (Homo sapiens) (P30291 whole entry, looked up): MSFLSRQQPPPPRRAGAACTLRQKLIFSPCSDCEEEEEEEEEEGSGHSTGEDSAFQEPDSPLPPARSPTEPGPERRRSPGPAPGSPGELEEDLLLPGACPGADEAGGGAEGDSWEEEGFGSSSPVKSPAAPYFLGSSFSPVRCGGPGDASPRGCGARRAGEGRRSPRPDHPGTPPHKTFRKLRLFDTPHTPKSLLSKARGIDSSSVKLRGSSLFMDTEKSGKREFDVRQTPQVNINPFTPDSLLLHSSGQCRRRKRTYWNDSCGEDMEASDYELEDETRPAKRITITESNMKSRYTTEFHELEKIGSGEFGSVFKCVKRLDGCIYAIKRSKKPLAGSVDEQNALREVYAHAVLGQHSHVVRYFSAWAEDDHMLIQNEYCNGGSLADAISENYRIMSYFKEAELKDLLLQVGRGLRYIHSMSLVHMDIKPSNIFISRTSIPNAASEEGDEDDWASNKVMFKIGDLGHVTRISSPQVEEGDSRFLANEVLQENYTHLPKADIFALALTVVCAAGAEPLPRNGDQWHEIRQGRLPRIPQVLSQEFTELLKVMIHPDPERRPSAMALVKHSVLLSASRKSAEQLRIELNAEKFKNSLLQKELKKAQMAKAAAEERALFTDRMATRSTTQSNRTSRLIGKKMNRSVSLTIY
A further experiment concerns the target Histamine H3 receptor (Homo sapiens, UniProt Q9Y5N1). In words: Selectivity interaction (Human histamine H3 receptor binding assay ) EUB0000877a HRH3.

Sequence of Dual specificity protein kinase CLK4 (Q9HAZ1 whole entry, looked up): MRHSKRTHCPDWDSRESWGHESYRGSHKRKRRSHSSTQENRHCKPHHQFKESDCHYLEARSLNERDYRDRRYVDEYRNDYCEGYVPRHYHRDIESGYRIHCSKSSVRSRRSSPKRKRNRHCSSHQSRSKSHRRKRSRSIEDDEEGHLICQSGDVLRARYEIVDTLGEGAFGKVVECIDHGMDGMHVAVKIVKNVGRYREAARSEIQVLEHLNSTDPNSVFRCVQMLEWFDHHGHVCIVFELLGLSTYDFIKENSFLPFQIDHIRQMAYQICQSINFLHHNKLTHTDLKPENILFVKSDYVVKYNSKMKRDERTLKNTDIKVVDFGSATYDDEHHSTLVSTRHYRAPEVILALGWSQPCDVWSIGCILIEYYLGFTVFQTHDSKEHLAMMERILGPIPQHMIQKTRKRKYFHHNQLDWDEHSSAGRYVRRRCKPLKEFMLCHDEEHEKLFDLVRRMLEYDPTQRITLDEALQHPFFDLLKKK
Sequence of Histamine H3 receptor (Q9Y5N1 whole entry): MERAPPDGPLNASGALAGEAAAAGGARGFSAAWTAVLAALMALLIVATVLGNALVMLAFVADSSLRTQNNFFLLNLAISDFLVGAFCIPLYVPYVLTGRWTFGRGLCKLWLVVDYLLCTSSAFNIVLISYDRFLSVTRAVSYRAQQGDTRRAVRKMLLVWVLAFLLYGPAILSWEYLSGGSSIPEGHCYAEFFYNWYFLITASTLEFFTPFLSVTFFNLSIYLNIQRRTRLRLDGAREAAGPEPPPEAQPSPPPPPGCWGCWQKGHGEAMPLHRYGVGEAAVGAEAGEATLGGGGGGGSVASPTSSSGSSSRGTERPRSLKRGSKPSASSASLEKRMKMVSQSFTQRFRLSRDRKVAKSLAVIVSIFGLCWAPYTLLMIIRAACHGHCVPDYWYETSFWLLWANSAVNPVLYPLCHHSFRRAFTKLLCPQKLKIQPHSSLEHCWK

For `CN(C)C/C=C/C(=O)Nc1ccc(C(=O)N2CCCC(Nc3ncc(Cl)c(-c4c[nH]c5ccccc45)n3)C2)cc1` (stereo not drawn), the % of control in experiment [1] was 73%; in experiment [2], 64%; in experiment [3], 84%; in experiment [4], 86%; in experiment [5], 99%.
The compound `Nc1cnc(N2CCc3cc(S(=O)(=O)Nc4c(F)cc(Cl)cc4F)cc(N4CCCC4=O)c32)nc1` [TP-020n] had a % of control in experiment [6] of 100%.
Take `Cc1cc(F)c(C(=O)Nc2cccc(-c3nncn3C(C)C)n2)cc1-n1cnc(C2CC2)c1`: the % of control in experiment [7] amounted to 100%.
`CCC(=O)N1CC[C@H](Nc2ncnc3c2CN(c2cnc(OC)c(C(F)(F)F)c2)CC3)C1` [LENIOLISIB]: at Histamine H3 receptor, the IC50 is above 30 µM.

For orientation: IC50 means the concentration needed to halve the response being measured.
